Legend:
[1] = system: CD34+ hematopoietic stem and progenitor cells; assay: Phase I study: CD34+ hematopoietic stem and progenitor cells in blood by flow cytometry; assay type: in vivo, human; conditions: 750 mg tablets, five subjects
Method: (§1) An open label Phase I clinical study was conducted to assess pharmacodynamics of sodium copper Chlorophyllin in healthy adult, human male subjects under fasting conditions. The study was approved by Drug Controller General of India (DCGI). The trial is registered with the Clinical Trial Registry of India (CTRI/2018/09/015576). Five healthy male subjects were allowed to fast overnight and one Chlorophyllin tablet (750 mg) was administered to each subject by oral route along with ˜200 ml water. The subjects were given breakfast, lunch and snacks and a second tablet of Chlorophyllin (750 mg) was administered to each subject by oral route along with 200 ml water after 12 hr.
Blood sample at each time point was also collected in K2EDTA vacutainer tube and erythrocytes were lysed using RBC lysis buffer. Then cells were stained with fixable far red live dead reagent and PE-CD34 and FITC-CD45 antibodies at 4° C. and fixed with 4% formaldehyde. The frequency of CD34+ hematopoietic stem and progenitor cells in the blood was determined by flow cytometry and FlowJo software.

[2] = system: lymphocytes; assay: Phase I study: absolute lymphocyte count in blood; assay type: in vivo, human; conditions: 750 mg tablets, healthy subjects
Method: as §1
(§2) Chlorophyllin tablets comprising Chlorophyllin or salts thereof (750 mg), were administered to healthy human subjects after overnight fasting. Blood samples were collected through an indwelling intravenous cannula (Venflon) placed in the fore arm vein of the subjects at different time intervals. Absolute neutrophil count (ANC) and white blood cell (WBC) counts were measured. Serum was separated and chemokine concentration in the serum was measured using cytometric bead array.

[3] = system: white blood cells; assay: Phase I study: white blood cell (WBC) count in blood; assay type: in vivo, human; conditions: 8-16 hr after first dose of 750 mg
Method: as §1, §2

[4] = system: Vero CCL-81 cells; conditions: 5 μM
[5] = system: neutrophils; assay: Phase I study: absolute neutrophil count (ANC) in blood; assay type: in vivo, human
Method: as §1, §2

[6] = system: SARS-CoV-2 virus; assay type: cell-based
[7] = Acute oral toxicity (oral gavage); assay type: in vivo, mice and rats
Method: (§3) Different doses of Chlorophyllin (100 to 5000 mg/kg body weight) were given to mice and rats (6 males, 6 females) by oral gavage in an accredited facility for animal toxicity testing.

[8] = Phase I study: tolerability in healthy human subjects; assay type: in vivo; conditions: 750 mg given twice a day, five subjects
Method: as §1

[9] = 28 day repeat dose toxicity; assay type: in vivo, rats; conditions: 1000 mg/kg body weight daily for 28 consecutive days
Method: as §3

## Sodium copper Chlorophyllin
[1]
  relative decrease in percentage of CD34+ HPSCs in human blood as compared to pre-dose value: 50-85%
[2]
  increase in lymphocyte counts in human blood as compared to pre-dose value: up to 30%
[3]
  increase in WBC count relative to pre-dose value: 12.8-26.5%
[4]
  cytotoxicity in the target cells: without causing cytotoxicity
[5]; 750 mg, 4 hr before second dose
  time to ANC increase after first dose: ≤ 8 h
[5]; 8-16 hr after first dose of 750 mg, fasting, five subjects
  increase in ANC relative to pre-dose value: 12.4-32.5%
[6]; 0.1 micro molar
  effect on SARS-CoV-2 virus multiplication: did not inhibit
[6]; 5 micro-molar, 72 hr, Vero CCL-81 cells
  inhibition of SARS-CoV-2 multiplication: ~87%
[6]; Vero CCL-81 cells, 72 hr
  concentration required for ~90% inhibition of multiplication of SARS-CoV-2 virus: about 5 micro molar
[6]; Vero CCL-81 cells, 72 hr, read-out: concentration required to inhibit SARS-CoV-2 multiplication by 50% (EC50)
  EC50: < 1 µM
[6]; less than 1 micro-molar
  effect on multiplication of SARS-CoV-2 virus: did not significantly decrease
[7]; rodents, indicated doses (acute up to 5000 mg/kg; 1000 mg/kg for 28 days)
  signs of toxicity: no signs of toxicity
[7]; rodents, oral, proposed from absence of toxicity
  LD50: higher than 5000 mg/kg body weight
[7]; up to 5000 mg/kg body weight, oral gavage, mice and rats
  tolerability of acute oral dose: well tolerated
[8]
  tolerability in human subjects: well tolerated
[9]
  tolerability of repeat dose: well tolerated

From patent US20220305023A1, “Chlorophyllin Containing Pharmaceutical Composition For Prevention Of Pathogenesis Of Coronavirus Disease” (priority 2021, published 2022)
